As a reminder, the EC50 is the concentration at which the effect is half-maximal. Low readings indicate a more potent agent, high ones a less potent agent.

One data set deals with T1, insulin receptor B (Homo sapiens, UniProt P06213).
T1 construct: expressed in transfected cells
The experiment in a line: Insulin receptor B autophosphorylation in transfected cells (Cisbio Phospho-IR beta Tyr1150/1151 kit). The data set is classed as cell-based. The settings on record: for Relative HI activity: relative to human insulin. The method, then: The phosphorylation level of insulin receptor B was detected by Cisbio's Phospho-IR beta (Tyr1150/1151) kit method to evaluate the biological activity of insulin. The cells were seeded into a 96-well plate overnight, and after the serum in the medium was removed, 40 μl of serum-free medium was added to culture for about 4 h. Then a dilution series of insulin derivatives were prepared with blank solution (0.6% casein, 0.06 mg/mL EDTA, 1×DPBS) and incubated with cells in the 96-well plate for 5 min in a CO2 incubator (37° C., 5% CO2). The liquid in the 96-well plate was poured off, 100 µL of a mixture of lysis buffer (2% Triton X-100, 150 mM NaCl, 50 mM HEPES, pH=7) and inhibitor (Blocking Reagent in the kit) was added to lyse the cells, then the plate was shaken at 350 rpm for 30 min. Relative activity (in percent (%)) was assessed by measuring insulin receptor phosphorylation levels in the supernatant after cell lysis and fitting a curve to the data using nonlinear regression in Graphpad Prism 5 software. Related assays were also used, in which the blank solution also contained 1.5% HSA to simulate physiological conditions. Changes in the phosphorylation levels of the insulin-activated insulin receptors of the invention were detected as an indirect reflection of the albumin binding activity.

The conditions of data set [1]: mouse, in vivo, sc, 10 nmol/kg.

T1 sequence (P06213 28-758 limits assumed): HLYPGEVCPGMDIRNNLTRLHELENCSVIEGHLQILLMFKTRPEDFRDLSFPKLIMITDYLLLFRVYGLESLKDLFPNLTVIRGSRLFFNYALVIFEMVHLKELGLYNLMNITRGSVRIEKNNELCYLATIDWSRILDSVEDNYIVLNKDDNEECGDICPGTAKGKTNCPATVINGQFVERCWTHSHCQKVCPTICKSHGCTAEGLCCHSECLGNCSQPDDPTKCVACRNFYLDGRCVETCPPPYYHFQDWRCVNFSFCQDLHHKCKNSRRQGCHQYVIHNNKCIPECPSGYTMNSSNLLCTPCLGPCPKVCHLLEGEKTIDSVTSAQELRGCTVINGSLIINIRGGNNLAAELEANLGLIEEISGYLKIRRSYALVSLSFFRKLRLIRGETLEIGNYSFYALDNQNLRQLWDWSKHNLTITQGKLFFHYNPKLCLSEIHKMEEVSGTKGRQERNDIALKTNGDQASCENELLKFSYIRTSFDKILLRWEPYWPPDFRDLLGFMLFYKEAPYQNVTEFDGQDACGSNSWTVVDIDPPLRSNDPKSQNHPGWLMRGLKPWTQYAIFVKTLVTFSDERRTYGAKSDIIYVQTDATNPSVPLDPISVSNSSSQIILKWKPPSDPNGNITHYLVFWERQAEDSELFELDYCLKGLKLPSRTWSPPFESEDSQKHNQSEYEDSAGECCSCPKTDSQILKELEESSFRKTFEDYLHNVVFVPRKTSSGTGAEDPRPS
T1 sequence (P06213 763-1382 partner limits assumed): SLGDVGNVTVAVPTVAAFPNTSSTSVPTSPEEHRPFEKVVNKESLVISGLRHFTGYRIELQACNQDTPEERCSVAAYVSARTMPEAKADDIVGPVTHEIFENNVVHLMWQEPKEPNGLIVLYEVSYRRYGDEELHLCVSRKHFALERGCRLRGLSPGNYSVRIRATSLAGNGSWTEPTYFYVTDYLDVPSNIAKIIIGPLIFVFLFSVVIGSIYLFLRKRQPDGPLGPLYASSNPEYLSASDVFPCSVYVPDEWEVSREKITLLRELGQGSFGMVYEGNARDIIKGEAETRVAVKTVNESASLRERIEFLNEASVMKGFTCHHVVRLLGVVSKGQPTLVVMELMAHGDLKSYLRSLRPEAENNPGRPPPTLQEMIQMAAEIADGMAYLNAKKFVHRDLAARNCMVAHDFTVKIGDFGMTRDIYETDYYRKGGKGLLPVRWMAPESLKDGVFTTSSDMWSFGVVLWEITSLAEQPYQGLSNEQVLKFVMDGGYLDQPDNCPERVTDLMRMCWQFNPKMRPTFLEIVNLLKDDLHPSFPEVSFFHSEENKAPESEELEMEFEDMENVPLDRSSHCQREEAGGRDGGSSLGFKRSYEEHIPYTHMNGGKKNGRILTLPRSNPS

With “A14E, B16E, B25H, B29K(N(ε)-COOH(CH2)18CO-L-Lys-CO(CH2)2CO—(OEG)2), desB30 human insulin analog [Insulin-a3]”, at insulin receptor B (0% HSA), the response was half-maximal at 0.213 µM (EC50) and the “Relative HI activity” value came out at 0.58%. Further, on insulin receptor B (1.5% HSA), the EC50 worked out at 4.49 µM and the “Relative HI activity” value was found to be 0.06%. For the same substance, the “Relative 0% HSA activity” value at insulin receptor B (1.5% HSA relative to 0% HSA) was found to be 5.86%. Besides, in data set [1], the AUClast amounted to 12.3 µg·h/mL and the T1/2 is listed as 18.6 h.

The values are drawn from US20240374692A1, “A NOVEL ACYLATED INSULIN ANALOG” (SUNSHINE LAKE PHARMA CO., LTD., priority 2021, published 2024).
